Reference: patent publication US9457056B2, “Peptides comprising alternating hydrophobic and anionic amino acids for treatment of osteoporosis” (Ben-Gurion University of the Negev Research and Development …, priority 2007, dated 2016)
“Also recorded” adds a separate entry of the source. Ends that are not written are not given here.

Columns and labels:
human stomach = details: healthy volunteers, doses prescribed for osteoporosis and Pagets disease of bone; cited from earlier work
[1] = Formation of hydrogels by additional peptides; assay type: physicochemical; details: 4% weight in 100 μl NaOH solution
From the text: Additional peptides were studies in order to elucidate the role of termini Proline residue in hydrogel formation, to test the effect of peptide length and peptide termini protecting groups.

Sprague-Dawley rats [2] = assay: Antigenicity (immunity) test, single intramuscular administration of hydrogel; assay type: in vivo, rat; details: single i.m. hydrogel, 7.5 times maximum estimated human dose, 14 days
Protocol: Immunity tests were performed to determine the safety of the compositions of the present invention. […] The control group was injected with saline. Rats were scarified after 14 days, blood was withdrawn for future hematology and biochemistry tests.

Sprague-Dawley rats [3] = assay: In vivo toxicity, single subcutaneous administration of hydrogel
Protocol: A control group was injected with saline. Rats were sacrificed after 14 days. Hematology and biochemistry blood tests were performed, the injected area was excised and examined as well as other internal organs.

SaOS2 cells = assay: Quantitative evaluation of SaOS2 growth on 2D hydrogels (LIVE/DEAD Viability/Cytotoxicity Kit); assay type: cell-based; details: 3% w/v hydrogel, vs uncoated wells
Protocol: On 2D hydrogels: Quantitative studies of cell proliferation were performed in 2D systems of PFD-13 (3% w/v) hydrogels that were formed with DMEM+bicarbonate at pH ˜7.0 in 96-wells plates.
The plates were sterilized by gamma irradiation (5000 rad). 50 μl of culture media were pipette on top of each hydrogel for conditioning. After 1 h at room temp, SaOS2 cells were seeded on top of the hydrogels. Single cell suspensions obtained after trypsinization which diluted to concentration of 1×10^5 cells/1 ml. 50 μl of this cell suspension was seeded on top of each hydrogel. Triplicates of none coated wells were seeded and served as control. After 1 h of incubation, medium was added to complete the volume to 200 μl in each well ([…] and 150 μl in the uncoated wells). Culture medium was exchanged twice a week. Viability of the cells was evaluated every week, over a month, using the LIVE/DEAD Viability/Cytotoxicity Kit (Molecular Probes, Invitrogen, France) following the manufacturer's instructions. […] Ethidium-III enters dead cells with damaged membranes and undergoes a 40-fold enhancement of fluorescence upon binding to their DNA, leading to a red fluorescent signal. The plates were measured in a plate reader (calcein: Ex=495 nm, Em=515 nm. ethidium: Ex=530 nm, Em=635 nm). After measuring the medium fluorescence, the gain was set constant for each probe. […]

[4] = Effect of Ca+2 ions on hydrogel formation; assay type: physicochemical; design: key: Hydrogel formation (✓); * partial formation of hydrogel over hours; details: peptide final concentration 1.34% weight
Protocol: With the addition of Ca^+2 ions to the solution of the peptide the system may form a hydrogel. These hydrogels are obtained at peptide concentrations smaller and at pH values higher than those without the ions. […] It is possible that the Ca^+2 may also induce cross linking between strands in a mechanism similar to that of alginate hydrogel formation. The concentration of Ca^+2 ions in the hydrogel are a few times larger than in the body serum (2.5 mM). This is envisaged to yield a better environment for the bone forming osteoblast cells. In any event, the Ca^+2 provides an additional parameter to control the hydrogel rheological and stability properties.
Peptides, 2% (w/v) in the liquid state were dissolved in 0.05 M NaOH to yield 7.0<pH<7.5 solution.

[5] = single s.c. hydrogel, about 10 times clinically relevant amount

Molecule	Resultant pH ([1]; NaOH conc. 0.03)	Resultant pH ([1]; NaOH conc. 0.05)	Self supporting gel formation assigned + ([1]; NaOH conc. 0.05)	Hydrogel formation upon the addition of CaCl2 sol. ([4]; Ca+2 final concentration 27 mM)	Hydrogel formation upon the addition of CaCl2 sol. ([4]; Ca+2 final concentration 33 mM)	Hydrogel formation upon the addition of CaCl2 sol. ([4]; Ca+2 final concentration 20 mM)	further results
NCCCC(O)(P(=O)(O)O)P(=O)(O)O [Alendronate, alendronate]							Gastric injury (human stomach): cause erosions and ulcers in the human stomach
(Phe-Asp)6 (chain 1 FDFDFDFDFDFD; chain 2 FDFDFDFDFDFD)	~6	~7					
Ac-PDFDFDFDFDFDP-NH2 [Ac-Pro-Asp-(Phe-Asp)5-Pro-NH2]	~6	>7.5	Viscous liquid				Appearance during the experiment (Sprague-Dawley rats [2]): appeared normal; Survival (Sprague-Dawley rats [2]): All rats survived; Levels of LDH (Sprague-Dawley rats [3]; rats sacrificed after 7 days): slightly high levels; Levels of LDH (Sprague-Dawley rats [3]; rats sacrificed after 14 days): normal; Behavior (Sprague-Dawley rats [3]; [5]): no signs of abnormal behavior; Body weight compared to control group (Sprague-Dawley rats [3]; [5]): did not lose weight; Internal organs (Sprague-Dawley rats [3]; [5]): appeared normal; Survival (Sprague-Dawley rats [3]; [5]): All rats survived
PDFDFDFDFDFDP [PFD-13, PD(FD)5P]				✓	✓		Cytotoxicity (EthD-III staining) (SaOS2 cells): not significant; also recorded: non toxic to the cells
PDLDLDLDLDLDP [PLD-13, PD(LD)5P]				*	*	*	
PEFEFEFEFEFEP [PFE-13, PE(FE)5P]				✓	✓	✓	
PELELELELELEP [PLE-13, PE(LE)5P]				✓	✓	✓	
Pro-Asp-(Phe-Asp)6 (chain 1 PDFDFDFDFDFDFD; chain 2 PDFDFDFDFDFDFD)	~6	~7	after several hrs.				
Pro-Asp-Phe-Asp (PDFD; printed: Pro-Asp-Phe-Asp)	~3	~4	liquid				Self supporting gel formation assigned + ([1]; NaOH conc. 0.03): liquid
